Measured values from article PMC9250534, “Synthesis and direct assay of large macrocycle diversities by combinatorial late-stage modification at picomole scale” (Nature Communications, 2022).

Target: MDM2 (Homo sapiens, UniProt Q00987)
Assay: MDM2 binding screen of Libraries 3 and 4: displacement of fluorescent probe F-M8 at 750 nM macrocycle
Conditions: Panel b, Library 3: 63 scaffolds combinatorially acylated with 15 carboxylic acids at 30 picomole scale; displacement of fluorescent peptide probe; macrocycle 750 nM
Outline: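 Cyclic peptide scaffolds were acylated in DMSO with carboxylic acids (20 equiv.), HBTU and DABCO for 6 h at room temperature. Reactions were quenched overnight in 100 mM Tris-Cl pH 7.4, 0.01% Tween20. The fluorescein conjugate was also competed with nutlin-3a.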

Chain of MDM2 (Q00987 whole entry): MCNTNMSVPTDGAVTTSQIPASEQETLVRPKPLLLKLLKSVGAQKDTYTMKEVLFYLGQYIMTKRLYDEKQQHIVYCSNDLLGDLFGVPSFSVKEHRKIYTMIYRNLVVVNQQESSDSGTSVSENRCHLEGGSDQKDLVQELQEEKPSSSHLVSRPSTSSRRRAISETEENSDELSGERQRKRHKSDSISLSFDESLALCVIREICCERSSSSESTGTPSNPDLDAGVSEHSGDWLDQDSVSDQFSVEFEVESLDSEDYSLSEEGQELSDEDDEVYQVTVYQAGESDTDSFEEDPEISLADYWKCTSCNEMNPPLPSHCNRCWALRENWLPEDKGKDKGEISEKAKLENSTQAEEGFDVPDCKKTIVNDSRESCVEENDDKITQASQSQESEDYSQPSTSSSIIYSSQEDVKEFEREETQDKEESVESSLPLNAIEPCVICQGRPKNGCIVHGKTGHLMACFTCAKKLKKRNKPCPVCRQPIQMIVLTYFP

fraction of fluorescent probe displaced	Structure (SMILES)
0.015	O=C(NC[C@@H]1NC(=O)[C@H]2CCCN(C2)C(=O)CCSSCCNC(=O)[C@H](Cc2ccc3ccccc3c2)NC1=O)c1ccc(Cl)s1 [X-Nip-Dap-2-Nal + Acid 14]
0.021	O=C(/C=C/c1ccc(Cl)cc1)NC[C@@H]1NC(=O)[C@H]2CCCN(C2)C(=O)CCSSCCNC(=O)[C@H](Cc2ccc3ccccc3c2)NC1=O [X-Nip-Dap-2-Nal + Acid 108]
0.021	O=C(/C=C/c1ccc(OCc2ccccc2)cc1)NC[C@@H]1NC(=O)[C@H]2CCCN(C2)C(=O)CCSSCCNC(=O)[C@H](Cc2ccc3ccccc3c2)NC1=O [X-Nip-Dap-2-Nal + Acid 110]
0.021	O=C(/C=C/c1ccc2ccccc2c1)NC[C@@H]1NC(=O)[C@H]2CCCN(C2)C(=O)CCSSCCNC(=O)[C@H](Cc2ccc3ccccc3c2)NC1=O [X-Nip-Dap-2-Nal + Acid 112]
0.181	O=C(NC[C@@H]1NC(=O)[C@H]2CCCN(C2)C(=O)CCSSCCNC(=O)[C@H](Cc2c[nH]c3cc(Cl)ccc23)NC1=O)c1ccc(Cl)s1 [X-Nip-Dap-Cl-Trp + Acid 14]
0.232	O=C(NC[C@@H]1NC(=O)[C@H]2CCCN(C2)C(=O)CCSSCCNC(=O)[C@H](Cc2c[nH]c3cc(Cl)ccc23)NC1=O)c1ccc2ccccc2c1 [X-Nip-Dap-Cl-Trp + Acid 107]
0.108	O=C(/C=C/c1ccc(Cl)cc1)NC[C@@H]1NC(=O)[C@H]2CCCN(C2)C(=O)CCSSCCNC(=O)[C@H](Cc2c[nH]c3cc(Cl)ccc23)NC1=O [X-Nip-Dap-Cl-Trp + Acid 108]
0.075	O=C(NC[C@@H]1NC(=O)[C@H]2CCCN(C2)C(=O)CCSSCCNC(=O)[C@H](Cc2c[nH]c3cc(Cl)ccc23)NC1=O)c1cccc(Oc2ccccc2)c1 [X-Nip-Dap-Cl-Trp + Acid 111]
0.221	O=C(/C=C/c1ccc2ccccc2c1)NC[C@@H]1NC(=O)[C@H]2CCCN(C2)C(=O)CCSSCCNC(=O)[C@H](Cc2c[nH]c3cc(Cl)ccc23)NC1=O [X-Nip-Dap-Cl-Trp + Acid 112]

Same assay, conditions: Panel c, Library 4: best nine scaffolds and 15 additional carboxylic acids; displacement of fluorescent probe

fraction of fluorescent probe displaced	Structure (SMILES)
0.052	O=C(/C=C/c1ccc(F)cc1)NC[C@@H]1NC(=O)[C@H]2CCCN(C2)C(=O)CCSSCCNC(=O)[C@H](Cc2ccc3ccccc3c2)NC1=O [X-Nip-Dap-2-Nal + Acid 116]
0.069	CCOc1ccc(/C=C/C(=O)NC[C@@H]2NC(=O)[C@H]3CCCN(C3)C(=O)CCSSCCNC(=O)[C@H](Cc3ccc4ccccc4c3)NC2=O)cc1 [X-Nip-Dap-2-Nal + Acid 117]
0.012	CCCOc1ccc(/C=C/C(=O)NC[C@@H]2NC(=O)[C@H]3CCCN(C3)C(=O)CCSSCCNC(=O)[C@H](Cc3ccc4ccccc4c3)NC2=O)cc1 [X-Nip-Dap-2-Nal + Acid 118]
0.020	O=C(/C=C/c1ccc(Cl)c(Cl)c1)NC[C@@H]1NC(=O)[C@H]2CCCN(C2)C(=O)CCSSCCNC(=O)[C@H](Cc2ccc3ccccc3c2)NC1=O [X-Nip-Dap-2-Nal + Acid 119]
0.012	O=C(/C=C/c1cccc(C(F)(F)F)c1)NC[C@@H]1NC(=O)[C@H]2CCCN(C2)C(=O)CCSSCCNC(=O)[C@H](Cc2ccc3ccccc3c2)NC1=O [X-Nip-Dap-2-Nal + Acid 122]
0.012	CC(=Cc1ccccc1)C(=O)NCC1NC(=O)C2CCCN(C2)C(=O)CCSSCCNC(=O)C(Cc2ccc3ccccc3c2)NC1=O (stereo not drawn) [X-Nip-Dap-2-Nal + Acid 123]
-0.021	CC(C)c1ccc(/C=C/C(=O)NC[C@@H]2NC(=O)[C@H]3CCCN(C3)C(=O)CCSSCCNC(=O)[C@H](Cc3ccc4ccccc4c3)NC2=O)cc1 [X-Nip-Dap-2-Nal + Acid 127]
0.0035	O=C(NC[C@@H]1NC(=O)[C@H]2CCCN(C2)C(=O)CCSSCCNC(=O)[C@H](Cc2ccc3ccccc3c2)NC1=O)c1cnc2ccccc2n1 [X-Nip-Dap-2-Nal + Acid 130]
